From paper PMC9668914, “Understanding VPAC receptor family peptide binding and selectivity” (Nature Communications, 2022)
Where two headings read alike, the source gives them in different places.

Columns and labels:
[1] = molecular target: T1, Nluc-PAC1R (Homo sapiens, UniProt P41586); assay: NanoBRET competition binding, AF568-PACAP27 probe (Fig. 5c); details: COS-7, 30 nM AF568-PACAP27, 4 °C, read-out: pIC50, PAC1R competition binding (converted)
T1 construct: A construct containing N-terminal NLuc immediately after the native signal peptide of PAC1R was also generated in pcDNA3.1; expressed in transfected cells; host or cells: COS-7 (transient, PEI; whole cells at 4 °C)
T1 sequence (P41586 21-468): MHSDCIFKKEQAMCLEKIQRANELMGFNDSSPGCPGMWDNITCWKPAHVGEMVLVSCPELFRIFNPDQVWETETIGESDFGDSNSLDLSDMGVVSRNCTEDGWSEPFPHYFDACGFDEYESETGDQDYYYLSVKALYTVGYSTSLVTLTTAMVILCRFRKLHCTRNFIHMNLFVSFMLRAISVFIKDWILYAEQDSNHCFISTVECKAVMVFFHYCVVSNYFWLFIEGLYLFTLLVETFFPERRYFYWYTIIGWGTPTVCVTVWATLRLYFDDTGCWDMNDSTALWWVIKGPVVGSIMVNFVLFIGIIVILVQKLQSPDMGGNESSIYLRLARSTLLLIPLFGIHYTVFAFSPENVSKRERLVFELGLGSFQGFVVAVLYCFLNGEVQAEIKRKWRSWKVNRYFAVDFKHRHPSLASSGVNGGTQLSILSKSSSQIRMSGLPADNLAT
Description: (§1) An HA signal peptide was inserted in place of the native signal peptide of the receptors and a FLAG epitope was incorporated into the receptor N-terminus immediately after the signal peptide. A His tag was fused to C-terminus of the receptor. 3C protease cleavage sites were inserted between both the FLAG and His tags and the receptor. […] The following PAC1R and VPAC1R mutants were also generated using Quikchange mutagenesis: PAC1R C25A, PAC1R C219A, PAC1R C25A/C219A, VPAC1R C37A and VPAC1R C208A. For all PAC1R constructs, we used the PAC1R null (PAC1n) splice variant. A construct containing N-terminal NLuc immediately after the native signal peptide of PAC1R was also generated in pcDNA3.1.
Therefore, the lysine residue at position 21 was replaced with a cysteine residue (^21C) for the facile conjugation of fluorophore via thiol-maleimide click reaction. The resulting target peptide ^21C-PACAP27 (Mutant fragment) with amidated C-terminus was synthesized by standard Fmoc-solid phase peptide synthesis method[43] and purified by Reversed-phase high-performance liquid chromatography (RP-HPLC). […] of Alexa Fluor™ 568F was purchased from ThermoFisher Scientific (Catalog number: A20003). The thiol-maleimide conjugation reaction was carried out by our published protocol. […] The molecular weight of the probe was confirmed by Matrix-Assisted Laser Desorption/Ionization Time-of-Flight Mass Spectrometry (MALDI-TOF MS).
COS-7 cells were plated in 10 cm dishes at approximately 1 million cells/dish. Cells were transfected 24 h later, using 3 μg of Nluc-PAC1R DNA using the method described above and then seeded at a density of 15,000 cells per well in white-bottom 96-well culturplates 24 h prior to assay. On the day of the assay, cell culture media was replaced with BRET buffer (0.1% ovalbumin, 10 mM HEPES, 1x HBSS, pH 7.45) and incubated at 4 °C for two hours. […] After 1.5 h, furimazine (10 μM final concentration) was added to each well and the plate incubated for a further 30 min in the dark at 4 °C before reading. Filtered light emissions were measured at 460±40 nm (donor channel) and at 610-LP nm (long pass) (acceptor channel) using a PHERAstar plate reader (BMG Labtech). The raw NanoBRET ratio was calculated by dividing the luminescence from the acceptor channel by the donor channel. Data were expressed as % AF568-PACAP27 BRET signal in the absence of competing ligand.
(§2) The pharmacological data in figures and tables are reported as mean + standard error of the mean (SEM) with the number of biological replicates indicated in the figure and table legends where “n” represents the number of biological replicates performed. Concentration-response data were analyzed in GraphPad Prism version 9.4.0 using a three-parameter logistic curve to derive pEC50 values for the cyclic AMP accumulation. Competition binding data were analyzed in GraphPad Prism using the one site—Fit log IC50 model to derive pIC50 values. For the cysteine mutagenesis data, comparisons of multiple different groups were performed using one-way analysis of variance (ANOVA), followed by Dunnett’s post-hoc test with the control group being the WT receptor, with significance accepted at p < 0.05. For the chimeric peptide data, comparisons of multiple different groups were performed using one-way ANOVA, followed by Tukey’s post-hoc test, with significance accepted at p < 0.05.

[2] = molecular target: T2, PAC1R (Homo sapiens, UniProt P41586); assay: cAMP accumulation, chimeric peptides (Fig. 5b); format: cell-based; details: COS-7, three-parameter logistic, read-out: pEC50, PAC1R cAMP (converted)
T2 construct: An HA signal peptide was inserted in place of the native signal peptide of the receptors; HA signal peptide (replaces the native signal peptide) (N); 3C protease cleavage sites (between FLAG and receptor, and between receptor and His) (internal); expressed in transfected cells; host or cells: COS-7 (transient, PEI)
T2 sequence (P41586 21-468): T1 sequence (P41586 21-468)
Description: as §1
COS-7 cells were used for the chimeric peptide and cysteine mutagenesis pharmacological assays due to their lack of endogenous expression of PAC1R and receptor activity-modifying proteins, reported to potentially heterodimerize with PAC1R and VPAC1R[42]. Cells were cultured in Dulbecco’s Modified Eagle’s Medium (DMEM) (Invitrogen) supplemented with 5% v/v heat-inactivated FBS at 37 °C and […] /5% CO2 in a humidified incubator. COS-7 cells were plated in 10 cm dishes at approximately 1 million cells/dish. Cells were transfected 24 h later, with 5 µg of either WT or mutant PAC1R or VPAC1R receptor DNA. DNA and PEI (in a 1:6 ratio) were each diluted in 150 mM NaCl, and then combined and incubated for 10 min, before the mixture was added to the 10 cm dish. The next day, cells were harvested from the 10 cm dishes using Trypsin-Versene (PBS + 0.5 mM EDTA, pH 7.4), and were seeded at a density of 15,000 cells/well into clear 96-well culture plates and incubated overnight at 37 °C in 5% CO2 for cAMP accumulation assay the next day.
The reaction was terminated after 30 min by aspiration of the buffer and addition of 50 μl of ice-cold ethanol. Upon evaporation of ethanol, 75 μl of lysis buffer (5 mM HEPES, 0.1% (w/v) OVA, 0.3% (w/v) Tween20, pH 7.4) was added to the cells. cAMP detection was performed using a LANCE cAMP Detection Kit (PerkinElmer) for the construct validation and cysteine mutagenesis pharmacological assays and cAMP Gs HiRange kit (Cisbio) for the chimeric peptide pharmacological assays. The plates were read using an EnVision plate reader with excitation at 320 nm and emission at 615 nm[45].
as §2

[3] = molecular target: Nluc-PAC1R (UniProt P41586); assay: FRET or BRET; NanoBRET whole cell competition binding; COS-7 cells with Nluc-PAC1R, 30 nM AF568-PACAP27 and increasing competing peptide added together, 4 °C, BRET buffer (0.1% ovalbumin, 10 mM HEPES, 1x HBSS, pH 7.45); one site fit of log IC50
[4] = system: GLP-1R; details: cited from earlier work
Description: In the equivalent position as R ...

[5] = system: PAC1R WT, C25A, C219A, C25A/C219A; assay: cAMP accumulation, cysteine mutagenesis (Fig. 6e, Supplementary Fig. 13d-f); format: cell-based; details: COS-7, mean of n = 3
Description: (§3) Maps are shown in transparent and model backbones are shown in ribbon format. The relevant cysteines are shown as stick models, with the putative disulfide bond present. […] The data for panels d and e are the mean ± SEM, n = 3 independent experiments. Differences in potency between WT and mutant receptors was assessed using a one-way ANOVA and Dunnett’s post-test. […] Interactions are listed by percentage of occupancy of frames, with the background colouring representing maximum occupancy % (red) and minimum occupancy % (white). Receptor residue background colouring is according to their residue numbering (TM transmembrane helix, ECL3 extracellular loop 3). Table is based on data presented in Supplementary Table 4. Source data for panels d and e are provided in the Source Data file.
as §1
(§4) COS-7 cells were used for the chimeric peptide and cysteine mutagenesis pharmacological assays due to their lack of endogenous expression of PAC1R and receptor activity-modifying proteins, reported to potentially heterodimerize with PAC1R and VPAC1R[42]. […] COS-7 cells were plated in 10 cm dishes at approximately 1 million cells/dish. Cells were transfected 24 h later, with 5 µg of either WT or mutant PAC1R or VPAC1R receptor DNA. […]
(§5) The reaction was terminated after 30 min by aspiration of the buffer and addition of 50 μl of ice-cold ethanol. […] The plates were read using an EnVision plate reader with excitation at 320 nm and emission at 615 nm[45].
(§6) The pharmacological data in figures and tables are reported as mean + standard error of the mean (SEM) with the number of biological replicates indicated in the figure and table legends where “n” represents the number of biological replicates performed. Concentration-response data were analyzed in GraphPad Prism version 9.4.0 using a three-parameter logistic curve to derive pEC50 values for the cyclic AMP accumulation. Competition binding data were analyzed in GraphPad Prism using the one site—Fit log IC50 model to derive pIC50 values. […]

[6] = system: VPAC1R WT, C37A, C208A; assay: cAMP accumulation, cysteine mutagenesis (Fig. 6d, Supplementary Fig. 13a-c); format: cell-based; details: for Difference in cAMP potency (pEC50) between WT and mutant VPAC1R: COS-7, mean of n = 3
Description: as §3, §1, §4, §5, §6

[7] = system: M299^PAC1R/D301^PAC1R; details: cited from earlier work
Description: Nonetheless, the secondary engagement of the peptide N-terminus with ECL2/ECL3 appeared to coordinate interactions that preceded the movement of the far N-terminal residues deeper into the binding pocket. Unique residues in ECL2 that differ between the V ...

[8] = system: VPAC2R; details: cited from earlier work

For `CC[C@H](C)[C@H](NC(=O)[C@H](CO)NC(=O)[C@H](CC(N)=O)NC(=O)[C@H](CC(C)C)NC(=O)[C@H](Cc1ccc(O)cc1)NC(=O)[C@H](CCCCN)NC(=O)[C@H](CCCCN)NC(=O)[C@@H](NC(=O)[C@H](C)NC(=O)[C@H](CCSC)NC(=O)[C@H](CCC(N)=O)NC(=O)[C@H](CCCCN)NC(=O)[C@H](CCCN=C(N)N)NC(=O)[C@H](CC(C)C)NC(=O)[C@H](CCCN=C(N)N)NC(=O)[C@@H](NC(=O)[C@H](Cc1ccc(O)cc1)NC(=O)[C@H](CC(N)=O)NC(=O)[C@H](CC(=O)O)NC(=O)[C@@H](NC(=O)[C@H](Cc1ccccc1)NC(=O)[C@@H](NC(=O)[C@H](C)NC(=O)[C@H](CC(=O)O)NC(=O)[C@H](CO)NC(=O)[C@@H](N)Cc1c[nH]cn1)C(C)C)[C@@H](C)O)[C@@H](C)O)C(C)C)C(=O)N[C@@H](CC(C)C)C(=O)N[C@@H](CC(N)=O)C(N)=O` [VIP, vasoactive intestinal peptide, reference compound], the IC50 ([1]; replicate n=1) was 4.5 µM, the IC50 ([1]; replicate n=2) was 8.09 µM and the IC50 ([1]; replicate n=3) was 12.7 µM. It also gave an IC50 ([1]; replicate n=4) of 15.7 µM, an IC50 ([1]; replicate n=5) of 7.14 µM and an EC50 ([2]; replicate n=1) of 0.0385 µM. It also gave an EC50 ([2]; replicate n=2) of 0.0309 µM, an EC50 ([2]; replicate n=3) of 0.0433 µM and an EC50 ([2]; replicate n=4) of 0.0764 µM. For the same molecule, the EC50 ([2]; replicate n=5) was 0.104 µM.
Ala4 PACAP27 (peptide) showed a fold reduction in pIC50 relative to PACAP27 [3] of 30 fold.
For GLP-1: glucagon-like peptide 1, the “GLP-1 affinity with R380 of GLP-1R switched to the VPAC1R residue” value [4] is given as “reduced GLP-1 affinity” and the “GLP-1 potency for cAMP production at GLP-1R D372A, E373A” value [4] is given as “reduced GLP-1 potency for cAMP production”.
In the case of “PACAP38: PACAP38, a 38 amino acid peptide”, the “Difference in cAMP potency (pEC50) between WT and mutant PAC1R” value ([5]; C25A C219A) is reported as -0.4376, the “Difference in cAMP potency (pEC50) between WT and mutant PAC1R” value ([5]; C25A) is reported as -0.9347 and the “Difference in cAMP potency (pEC50) between WT and mutant PAC1R” value ([5]; C219A) is reported as -0.4471. The “Difference in cAMP potency (pEC50) between WT and mutant PAC1R” value ([5]; WT) was 0, the “Difference in cAMP potency (pEC50) between WT and mutant VPAC1R” value ([6]; C37A) was -0.5843 and the “Difference in cAMP potency (pEC50) between WT and mutant VPAC1R” value ([6]; C208A) was -0.568. For the same molecule, the “reduction in cAMP potency at single cysteine mutants of either receptor, compared with VIP” value ([6]; VPAC1R and PAC1R single mutants (Fig. 6d, e), only significant for PACAP27 at C37A VPAC1R or C25A PAC1R) was “much smaller reduction in potency”, the “Difference in cAMP potency (pEC50) between WT and mutant VPAC1R” value ([6]; WT) was 0 and the “PACAP38-mediated cAMP production with alanine mutation of M299/D301 PAC1R” value [7] was “reduced PACAP38-mediated cAMP production”.
In the case of “pituitary adenylate cyclase-activating polypeptide [PACAP]”, the VPAC2R affinity [8] is given as “high affinity”.
